According to patent US7576188B2, “Antitumoral treatments” (Pharma Mar, S.A.U., priority 2004, dated 2009):
Read-outs that look alike come from different tables or passages of the source. Numbered stars: 1 amine (or outer) side, 2 acyl side, 3 side chain; on linkers, the order of the positions; unused ones are H or OH. Bridge positions count the residues as written; N and C are the ends. Square brackets hold non-standard residues; d marks the D form. Peptide text beside a SMILES is read from it. * marks the point of attachment. X1 = CC[C@H](C)[C@@H](N[*:1])[C@@H](O)CC(=O)O[C@H](C(=O)[C@H](C)C(=O)[*:2])C(C)C; NMeY = CN[C@@H](Cc1ccc(O)cc1)C(=O)O; dNMeL = CN[C@H](CC(C)C)C(=O)O; Pyruvoyl = CC(=O)C(=O)*

What was measured:
[1] = system: K562, CEM and SKI-DLCL cell lines; assay: Combination of IC20 aplidine with a dose range of additional drug (Table 1); type: cell-based
Method: Drug combination studies were carried out on established cell lines rather than primary cells. We studied three cell lines, viz. K562 as a model for acute myeloid leukemia, CEM representing acute lymphocytic leukemia and SKI-DLCL representing diffuse large cell lymphoma. Combination studies with IC20 and IC 50 dose of aplidine with a dose range of methotrexate, cytosine arabinoside and doxorubicin were tested to determine if aplidine could potentiate the effect of these drugs.

CEM-T leukemic cells = assay: In vivo antitumor effect in SCID mice xenograft model; conditions: AraC alone at 50 mg/kg, intra-peritoneally
Method: SCID mice were inoculated subcutaneously in the right flank with 10^7 CEM-T leukemic cells. They were observed twice weekly for tumor formation at the site of inoculation. After establishment of palpable tumor, alidine was injected as single agent and in combination with several doses of AraC to determine the antitumor effect. Mice were randomized to receive alidine alone at doses of 0.75 mg/kg and 1 mg/kg, AraC alone at 50 mg/kg, or combination of Aplidine and AraC for all dose combinations. […] All drugs were administered intra-peritoneally, and tumor size was compared to a control group of mice not receiving any treatment and for combination groups, compared to tumor sizes with single agent treatment.

CCRF-CEM cells = assay: XTT/MTS cytotoxicity, single agents and combinations, CCRF-CEM; conditions: for Viability (% of control): single agent at its IC50 dose
Method: (§3) Cell viability is measured by XTT assay in an automated plate reader.
(§4) All the citotoxicity studies were performed by using XTT or MTS.
(§5) Data was obtained after cell incubation for 96 hours and using XTT asay. The results represent means of three different experiments.

K562 cells [2] = assay: XTT/MTS cytotoxicity, single agents and combinations, K562; conditions: for Viability (% of control): K562, single agent at its IC50 dose
Method: as §3
(§6) Chou-Talalay analysis was used to analyze the drug combinations.
(§7) All the citotoxicity studies were performed by using XTT or MTS. We first determined the IC50 dose of these drugs in SKI-DLCL, CCRF-CEM and K562 cell lines. We investigated drug combinations using IC50(Aplidine):IC50(DrugX) fixed ratio.

SKI-DLCL cells [3] = conditions: for IC50: 96 hours
Method: as §3, §4, §5

SKI-DLCL cells [4] = assay: cells; conditions: 96 h
Method: as §3, §4, §5

K562 cells [5] = system: K562 cells
Method: as §3, §6, §7

[6] = Determination of maximum tolerated dose in SCID mice; type: in vivo, C.B.-17 scid/scid (SCID) mice; conditions: total dose given in five daily doses
Source text: We have used an in vivo model of human lymphoma in SCID mice for this purpose. Specifically, we have used CCRF-CEMS cells and CB.17 scid/scid mice. We have experience with this model and have evaluated drug treatments using this xenograft (Lacerda J. F. et al. Blood 85 (10): 2675-2679 (1995)).

[7] = at maximum tolerated doses, clinical Phase I; except for mild lymphopenia; cited from earlier work
[8] = solubilised, heat and light stress; cited from earlier work
ALL-MOLT4 cells = conditions: cited from earlier work
preB-ALL (DM4) cells = assay: Viability of primary preB-ALL (DM4) cells cultured with aplidine; type: cell-based, human
Method: (§1) Aplidine was tested against various primary cells from patients with hematologic malignancies. The cells used were: • fresh cells obtained from six chronic lymphocytic leukemia patients • primary cell from a patient with preB-ALL (DM4)
(§2) Patient samples were obtained with prior consent and CLL cells were isolated by density gradient centrifugation over histopaque. The media used was RPMI supplemented with 10% autologous serum and L-glutamine. The cultures were incubated with 10 nM aplidine and cell viability was measured days 3, 7,11 and 18 and compared with viability of untreated cells and STI 571 (0.5 mM).

[9] = system: chronic lymphocytic leukemia (CLL) cells; assay: Viability of fresh primary CLL cells cultured with aplidine; type: cell-based, human
Method: as §1, §2

[10] = system: AML and ALL samples from pediatric patients; conditions: de novo or relapsed ALL and AML; cited from earlier work
[11] = read-out: IC50 dose, single agent, 96 hours
[12] = SKI-DLCL, single agent at its IC50 dose
[13] = read-out: IC50 dose, single agent, SKI-DLCL
[14] = Homo sapiens, K562, No Aplidine
[15] = Homo sapiens, K562, with IC20 Aplidine (0.5 nM)
[16] = Homo sapiens, K562, 96 h, read-out: IC50 dose, single agent, K562, 96 hours

Nc1ccn([C@@H]2O[C@H](CO)[C@@H](O)[C@@H]2O)c(=O)n1 [AraC, cytosine arabinoside]
IC50 ([1]; No Aplidine): 30 nM | IC50 ([1]; with IC20 Aplidine (0.5 nM)): 6 nM | in vivo antitumor effect (tumor growth) (CEM-T leukemic cells): tumor growth was inhibited but no tumor regression occurred | IC50 (CCRF-CEM cells; read-out: IC50 dose of AraC, in combination with IC20 (APL), 96 hours, XTT): 0.8 nM | IC50 (CCRF-CEM cells; [11]): 10 nM | Viability (% of control) (CCRF-CEM cells): 56.4 % of control | Viability (% of control) (K562 cells [2]): 50 % of control | IC50 (K562 cells [2]; read-out: IC50 dose, single agent, K562, 96 hours): 30 nM | Viability (% of control) (SKI-DLCL cells [3]; [12]): 50 % of control | IC50 (SKI-DLCL cells [3]; read-out: IC50 dose of AraC, SKI-DLCL, in combination with IC20 (APL), XTT): 1.6 nM | IC50 (SKI-DLCL cells [3]; [13]): 30 nM

COc1cccc2c1C(=O)c1c(O)c3c(c(O)c1C2=O)C[C@@](O)(C(=O)CO)C[C@@H]3O[C@H]1C[C@H](N)[C@H](O)[C@H](C)O1 [Dox, doxorubicin]
IC50 [1, 14]: 18 nM | IC50 [1, 15]: 1 nM | IC50 (SKI-DLCL cells [4]; read-out: IC50 dose): 5 nM | Viability (% of control) (SKI-DLCL cells [3]; [12]): 50 % of control

CN(Cc1cnc2nc(N)nc(N)c2n1)c1ccc(C(=O)N[C@@H](CCC(=O)O)C(=O)O)cc1 [MTX, methotrexate]
IC50 [1, 14]: 5 nM | IC50 [1, 15]: 0.5 nM | IC50 (CCRF-CEM cells; [11]): 10 nM | Viability (% of control) (CCRF-CEM cells): 50 % of control

C[C@H]1C[C@@H]2[C@H]([C@@H](O)C[C@@]3(C)[C@H]2CC[C@]3(O)C(=O)CO)[C@@]2(C)C=CC(=O)C=C12 [Metpred, methylprednisolone]
IC50 (SKI-DLCL cells [4]; read-out: IC50 dose): 160 nM | Viability (% of control) (SKI-DLCL cells [3]; [12]): 51 % of control

O=C1c2c(O)ccc(O)c2C(=O)c2c(NCCNCCO)ccc(NCCNCCO)c21 [Mitox, mitoxantrone]
IC50 (SKI-DLCL cells [4]; read-out: IC50 dose): 5 nM | IC50 (CCRF-CEM cells; [11]): 30 nM | Viability (% of control) (CCRF-CEM cells): 56 % of control | IC50 (K562 cells [2]; [16]): 7.5 nM | Viability (% of control) (K562 cells [2]): 50.7 % of control | Viability (% of control) (SKI-DLCL cells [3]; [12]): 50 % of control

CC[C@]1(O)C[C@@H]2CN(CCc3c([nH]c4ccccc34)[C@@](C(=O)OC)(c3cc4c(cc3OC)N(C)[C@H]3[C@@](O)(C(=O)OC)[C@H](OC(C)=O)[C@]5(CC)C=CCN6CC[C@]43[C@@H]65)C2)C1 [Vinb, vinblastine]
IC50 (SKI-DLCL cells [4]; read-out: IC50 dose): 4 nM | Viability (% of control) (SKI-DLCL cells [3]; [12]): 50 % of control

CC[C@H](C)[C@H]1NC(=O)[C@@H](NC(=O)[C@@H](CC(C)C)N(C)C(=O)[C@@H]2CCCN2C(=O)C(C)=O)[C@@H](C)OC(=O)[C@H](Cc2ccc(OC)cc2)N(C)C(=O)[C@@H]2CCCN2C(=O)[C@H](CC(C)C)NC(=O)[C@@H](C)C(=O)[C@H](C(C)C)OC(=O)C[C@@H]1O [aplidine, Dehydrodidemnin B] (Pyruvoyl-P[dNMeL]T[X1]LP[NMeY](Me); ester 3-C)
Viability (% of control) (K562 cells [5]): 50 % of control | IC50 (SKI-DLCL cells [4]; read-out: IC50 dose, single agent, SKI-DLCL, 96 hours): 0.5 to 1 nM | maximum dose that can be tolerated (MTD) [6]: 1 mg/kg/week | myelotoxicity [7]: not myelotoxic | IC50 (CCRF-CEM cells; [11]): 0.5 nM | degradation under stress testing [8]: substantial degradation | VEGF secretion (ALL-MOLT4 cells): block VEGF secretion | inhibition of preB-ALL cells in culture (preB-ALL (DM4) cells; FIG. 2): potent inhibitor | IC50 (preB-ALL (DM4) cells; Homo sapiens, 72 h, DM4 line, 3 day exposure): 10 nM | IC50 (K562 cells [2]; [16]): 0.5 to 1 nM | IC50 (K562 cells [2]; read-out: IC50 dose, single agent, K562, 96 hours, listed as APL): 1 nM | growth of CLL cells in culture ([9]; FIG. 1): inhibits growth | IC50 ([9]; Homo sapiens, CLL cell, 264 h, primary CLL samples, 11 day exposure): 10 nM | concentration with in vitro cytotoxic activity [10]: 5 nM | Viability (% of control) (SKI-DLCL cells [3]): 50 % of control | IC50 (SKI-DLCL cells [3]; [13]): 0.5 nM
